Measured values reported in patent publication US20260184691A1, “INHIBITORS AND DEGRADERS OF PIP4K PROTEIN” (Larkspur Biosciences, Inc., priority 2022, published 2026).

biological target: T1, Human PIP4K2C (Homo sapiens, UniProt Q8TBX8); test: Enzyme binding assay (KINOMEscan), active site-directed competition binding; details: 11-point dose response, duplicate, top concentration 5 micromolar; read-out: Pip4k2c Kd: IC50
T1 construct: purchased Eurofins DiscoverX 87-0007-1094
T1 sequence (Q8TBX8 1-421): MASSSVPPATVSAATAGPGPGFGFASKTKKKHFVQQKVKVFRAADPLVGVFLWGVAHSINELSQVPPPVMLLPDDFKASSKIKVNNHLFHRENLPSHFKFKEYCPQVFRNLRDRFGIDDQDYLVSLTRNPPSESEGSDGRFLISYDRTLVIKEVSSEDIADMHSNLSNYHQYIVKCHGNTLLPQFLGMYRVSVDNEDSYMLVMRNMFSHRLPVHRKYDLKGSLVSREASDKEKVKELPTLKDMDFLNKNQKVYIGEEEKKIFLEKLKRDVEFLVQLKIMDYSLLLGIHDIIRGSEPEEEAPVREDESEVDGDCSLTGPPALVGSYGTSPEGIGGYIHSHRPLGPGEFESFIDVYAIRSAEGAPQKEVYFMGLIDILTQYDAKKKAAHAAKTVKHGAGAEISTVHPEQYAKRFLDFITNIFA
Summary of the method: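 Active site-directed competition against immobilized ligand. 11-point dose response in duplicate, top concentration 5 micromolar; IC50 from Hill fit by Levenberg-Marquardt.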

IC50, < 500 nM:
O=C1CCCN1c1cncc(Nc2ncc(Cl)c(-c3cc(-c4ccccc4)ccc3Cl)n2)c1 [Compound 20, 1-(5-((5-chloro-4-(4-chloro-[1,1′-biphenyl]-3-yl)pyrimidin-2-yl)amino)pyridin-3-yl)pyrrolidin-2-one]
O=C1CCCN1c1cncc(Nc2ncc(Cl)c(N3CCCC(n4ccccc4=O)C3)n2)c1 (stereo not shown) [Compound 156, 1-(1-(5-chloro-2-((5-(2-oxopyrrolidin-1-yl)pyridin-3-yl)amino)pyrimidin-4-yl)piperidin-3-yl)pyridin-2(1H)-one]
CC1CN(c2nc(Nc3cncc(N4CCCC4=O)c3)ncc2Cl)CC(C)O1 (stereo not shown) [Compound 114, 1-(5-((5-chloro-4-(2,6-dimethylmorpholino)pyrimidin-2-yl)amino)pyridin-3-yl)pyrrolidin-2-one]
O=C1CCCN1c1cncc(Nc2ncc(F)c(-c3ccc(=O)n(C4COC4)c3)n2)c1 [Compound 155, 5-(5-fluoro-2-((5-(2-oxopyrrolidin-1-yl)pyridin-3-yl)amino)pyrimidin-4-yl)-1-(oxetan-3-yl)pyridin-2(1H)-one]
O=C1CCCN1c1cncc(Nc2ncc(Cl)c(N3CCCC(c4ccccc4)C3)n2)c1 (stereo not shown) [Compound 24, 1-(5-((5-chloro-4-(3-phenylpiperidin-1-yl)pyrimidin-2-yl)amino)pyridin-3-yl)pyrrolidin-2-one]
O=C1CCCN1c1cncc(Nc2ncc(Cl)c(-c3ccccc3Cl)n2)c1 [Compound 95, 1-(5-((5-chloro-4-(2-chlorophenyl)pyrimidin-2-yl)amino)pyridin-3-yl)pyrrolidin-2-one]
O=C1CCCN1c1cncc(Nc2ncc(Cl)c(-c3ccc(F)cc3Cl)n2)c1 [Compound 112, 1-(5-((5-chloro-4-(2-chloro-4-fluorophenyl)pyrimidin-2-yl)amino)pyridin-3-yl)pyrrolidin-2-one]
O=C1CCCN1c1cncc(Nc2ncc(Cl)c(-c3cccc(-c4ccccn4)c3)n2)c1 [Compound 9, 1-(5-((5-chloro-4-(3-(pyridin-2-yl)phenyl)pyrimidin-2-yl)amino)pyridin-3-yl)pyrrolidin-2-one]
COc1ccc(-c2ccccc2)cc1-c1nc(Nc2cncc(N3CCCC3=O)c2)ncc1Cl [Compound 21, 1-(5-((5-chloro-4-(4-methoxy-[1,1′-biphenyl]-3-yl)pyrimidin-2-yl)amino)pyridin-3-yl)pyrrolidin-2-one]
CC(=O)N1CCC(n2cc(-c3nc(Nc4cncc(N5CCCC5=O)c4)ncc3Cl)cn2)CC1 [Compound 48, 1-(5-((4-(1-(1-acetylpiperidin-4-yl)-1H-pyrazol-4-yl)-5-chloropyrimidin-2-yl)amino)pyridin-3-yl)pyrrolidin-2-one]
O=C1N(c2cncc(Nc3ncc(Cl)c(-c4cccc(-c5ccccc5)c4)n3)c2)CCC12CCNCC2 [Compound 1, 2-(5-((4-([1,1′-biphenyl]-3-yl)-5-chloropyrimidin-2-yl)amino)pyridin-3-yl)-2,8-diazaspiro[4.5]decan-1-one]
O=C1CCCN1c1cncc(Nc2ncc(Cl)c(-c3cccc(N4CCC4)c3)n2)c1 [Compound 122, 1-(5-((4-(3-(azetidin-1-yl)phenyl)-5-chloropyrimidin-2-yl)amino)pyridin-3-yl)pyrrolidin-2-one]
Cc1ccccc1-c1nc(Nc2cncc(N3CCCC3=O)c2)ncc1Cl [Compound 116, 1-(5-((5-chloro-4-(o-tolyl)pyrimidin-2-yl)amino)pyridin-3-yl)pyrrolidin-2-one]
CN1CCC2(CC1)CCN(c1cncc(Nc3ncc(Cl)c(-c4cccc(-c5ccccc5)c4)n3)c1)C2=O [Compound 132, 2-[5-[[5-chloro-4-(3-phenylphenyl)pyrimidin-2-yl]amino]-3-pyridyl]-8-methyl-2,8-diazaspiro[4.5]decan-1-one]
CC(=O)N1CCC2(CC1)CCN(c1cncc(Nc3ncc(Cl)c(-c4cccc(-c5ccccc5)c4)n3)c1)C2=O [Compound 133, 8-acetyl-2-[5-[[5-chloro-4-(3-phenylphenyl)pyrimidin-2-yl]amino]-3-pyridyl]-2,8-diazaspiro[4.5]decan-1-one]
CC1CCN(c2nc(Nc3cncc(N4CCCC4=O)c3)ncc2Cl)CC1 [Compound 102, 1-(5-((5-chloro-4-(4-methylpiperidin-1yl)pyrimidin-2-yl)amino)pyridin-3-yl)pyrrolidin-2-one]
O=C1CCCN1c1cncc(Nc2ncc(Cl)c(-c3cnn(C4CCCC4)c3)n2)c1 [Compound 138, 1-[5-[[5-chloro-4-(1-cyclopentylpyrazol-4-yl)pyrimidin-2-yl]amino]-3-pyridyl]pyrrolidin-2-one]
O=C1CCCN1c1cncc(Nc2ncc(Cl)c(-c3cnn(C4CCCCC4)c3)n2)c1 [Compound 139, 1-[5-[[5-chloro-4-(1-cyclohexylpyrazol-4-yl)pyrimidin-2-yl]amino]-3-pyridyl]pyrrolidin-2-one]
O=C1CCCN1c1cncc(Nc2ncc(Cl)c(C3CCCN(c4ccccc4)C3)n2)c1 (stereo not shown) [Compound 141, 1-(5-((5-chloro-4-(1-phenylpiperidin-3-yl)pyrimidin-2-yl)amino)pyridin-3-yl)pyrrolidin-2-one]
O=C1CCCN1c1cncc(Nc2ncc(Cl)c(-c3cccc(-c4ccc(Cl)c(Cl)c4)c3)n2)c1 [Compound 2, 1-(5-((5-chloro-4-(3′,4′-dichloro-[1,1′-biphenyl]-3-yl)pyrimidin-2-yl)amino)pyridin-3-yl)pyrrolidin-2-one]
CC(=O)N1CCC(c2cccc(-c3nc(Nc4cncc(N5CCCC5=O)c4)ncc3Cl)c2)CC1 [Compound 28, 1-(5-((4-(3-(1-acetylpiperidin-4-yl)phenyl)-5-chloropyrimidin-2-yl)amino)pyridin-3-yl)pyrrolidin-2-one]
O=C1CCCN1c1cncc(Nc2ncc(Cl)c(N3CCC[C@H](c4ccccc4)C3)n2)c1 [Compound 44, (R)-1-(5-((5-chloro-4-(3-phenylpiperidin-1-yl)pyrimidin-2-yl)amino)pyridin-3yl)pyrrolidin-2-one]
O=C1CCCN1c1cncc(Nc2ncc(Cl)c(N3CCC(c4ccccn4)C3)n2)c1 (stereo not shown) [Compound 120, 1-(5-((5-chloro-4-(3-(pyridin-2-yl)pyrrolidin-1-yl)pyrimidin-2-yl)amino)pyridin-3-yl)pyrrolidin-2-one]
COc1ccc(-c2cccc(-c3nc(Nc4cncc(N5CCCC5=O)c4)ncc3Cl)c2)cc1 [Compound 5, 1-(5-((5-chloro-4-(4′-methoxy-[1,1′-biphenyl]-3-yl)pyrimidin-2-yl)amino)pyridin-3-yl)pyrrolidin-2-one]

biological target: T2, endogenous PIP4K2C C-terminally tagged with HiBiT peptide in MOLT-4 cells (Homo sapiens, UniProt Q8TBX8); test: HiBiT PIP4K2C degradation assay in MOLT-4 cells; format: cell-based; details: 24 hours, 10-point dose response, top concentration 10 micromolar, read-out: HiBIT-degradation MOLT4 PIP4k2C 24 hours DC50
T2 construct: to C-terminally tag endogenous PIP4K2C with HiBiT peptide; host or cells: MOLT-4 (CRISPR-Cas9 knock-in clone)
T2 sequence (Q8TBX8 1-421): T1 sequence (Q8TBX8 1-421)
Procedure: Following clonal selection, genotype was confirmed by Sanger sequencing. […] Nano-Glo® HiBiT Lytic Assay System was purchased from Promega (Madison, WI, Catalog number N3030). Cell culture flasks and 384-well microplates were purchased from Corning (Glendale, AZ).
To study PIP4K2C degradation, 384-well plates were plated with a 10-point dose response curve, 3-fold dilution, in duplicate with a top starting concentration of 10 micromolar. Subsequently 22,500 cells were added to each well and incubated at 37C in 5% CO2 for 24 hours. At the end of the incubation time, cells were treated with the Nano-Glo® HiBiT Lytic Detection System following the manufacturer's instructions. Luminescence was measured with a PHERAstar FSX plate reader (BMG Labtech, Cary, NC). The Levenberg-Marquardt algorithm was used to fit a Hill equation to dose-response data to calculate DC50 values (see Table 6).

DC50, < 500 nM:
Cn1c(=O)n(C2CCC(=O)NC2=O)c2ccc(C3CCN(C(=O)CN4CCC5(CC4)CCN(c4cncc(Nc6ncc(Cl)c(-c7cccc(C8CC8)c7)n6)c4)C5=O)CC3)cc21 (stereo not shown) [Compound 208, 3-[5-[1-[2-[2-[5-[[5-chloro-4-(3-cyclopropylphenyl)pyrimidin-2-yl]amino]-3-pyridyl]-1-oxo-2,8-diazaspiro[4.5]decan-8-yl]acetyl]-4-piperidyl]-3-methyl-2-oxo-benzimidazol-1-yl]piperidine-2,6-dione]
O=C1CCC(Nc2ccc(C3CCN(CC(=O)N4CCC5(CC4)CCN(c4cncc(Nc6ncc(Cl)c(N7CCC[C@@H](O)C7)n6)c4)C5=O)CC3)cc2)C(=O)N1 (stereo partly drawn) [Compound 170, 3-((4-(1-(2-(2-(5-((5-chloro-4-((R)-3-hydroxypiperidin-1-yl)pyrimidin-2-yl)amino)pyridin-3-yl)-1-oxo-2,8-diazaspiro[4.5]decan-8-yl)-2-oxoethyl)piperidin-4-yl)phenyl)amino)piperidine-2,6-dione]
O=C(COc1cccc2c1CN(C1CCC(=O)NC1=O)C2=O)NCCCCCCCCCC(=O)Nc1cncc(Nc2ncc(Cl)c(-c3cccc(-c4ccccc4)c3)n2)c1 (stereo not shown) [Compound 66, N-(5-((4-([1,1′-biphenyl]-3-yl)-5-chloropyrimidin-2-yl)amino)pyridin-3-yl)-10-(2-((2-(2,6-dioxopiperidin-3-yl)-1-oxoisoindolin-4-yl)oxy)acetamido)decanamide]
O=C1CCC(Nc2ccc(C3CCN(CC(=O)N4CCC5(CC4)CCN(c4cncc(Nc6ncc(Cl)c(N7CCOC(c8ccccc8)C7)n6)c4)C5=O)CC3)cc2)C(=O)N1 (stereo not shown) [Compound 186, 3-[4-[1-[2-[2-[5-[[5-chloro-4-(2-phenylmorpholin-4-yl)pyrimidin-2-yl]amino]-3-pyridyl]-1-oxo-2,8-diazaspiro[4.5]decan-8-yl]-2-oxo-ethyl]-4-piperidyl]anilino]piperidine-2,6-dione]
